Consider 13 molecules from publication PMC9227305, “Photoinduced Synthesis of Methylated Marine Cyclopeptide Galaxamide Analogs with Isoindolinone as Anticancer Agents” (Marine Drugs, 2022).

Several values for one entry are separate records, joined by “and”; a condition that tells them apart may be missing. Equal values may be shown once. Read-outs that look alike come from different tables or passages of the source. *1 amine or outer side, *2 acyl side, *3 side chain or, on linkers, in order; H or OH if unused. Where a SMILES comes first, the peptide text is derived from it. [ ]: non-standard residue; d: D form. X1 = O=C1c2ccccc2[C@@](O)(CN(Cc2ccccc2)[*:1])N1CC(=O)[*:2]; X2 = O=C1c2ccccc2[C@](O)(CN(Cc2ccccc2)[*:1])N1CC(=O)[*:2]; NMeL = CN[C@@H](CC(C)C)C(=O)O; dNMeL = CN[C@H](CC(C)C)C(=O)O Bounds are passed on as bounds.

The test system of one data set is HepG-2 cells. The experiment in a line: cells. The source says: (§1) The antitumor activity of the prepared cyclic peptides against human hepatocellular carcinoma cells (HepG-2), human cervical cancer cell lines (HeLa) and human breast cancer cells (MDA-MB-231) was examined by MMT assay, and the mouse fibroblast L929 cells were used as the model cells to evaluate the toxicity of cyclopeptides to normal cell lines. Due to the absence of an authentic standard, taxol was chosen as a control because it is a widely used chemotherapeutic drug for the treatment of various cancers, including liver cancer.
(§2) Samples were dissolved in DMSO and diluted into different concentrations ([…], 18.75, 25, 37.5, 50, 75, 100 and 250 μM) and stored at 4 °C. Cells in the logarithmic growth phase were digested with trypsin and then seeded in 96-well plates at a density of 2 × 10^4 cells/well in 100 μL of culture medium. The cells were treated with different concentrations of the tested compound, and a blank control group without the drug was also set up. Six wells were repeated for each dose. After 48 h of co-incubation, MTT solution (100 μL, 0.5 mg/mL) was added, followed by incubation for another 4 h. After discarding the supernatant, 100 μL of DMSO was added per well, and the absorbance (OD) values were measured at 490 nm using an enzyme marker. Cell viability was calculated by the formula: Cell viability (%) = As/Ab × 100% (where As is the absorbance value of the experimental group and Ab is the absorbance value of the blank group). The obtained data were processed using SPSS19 software to obtain IC50 values.

In a further data set the test system is L929 cells. The experiment in a line: cells.
Description: as §1, §2

Another data set has as its system MDA-MB-231 cells. Format: cell-based, human. As to conditions: 48 h.
Description: as §1, §2

For data set [1] the following is noted: other bond; 21-membered ring; hv (450 W Hg lamp, Pyrex), SET photocyclization.
Data set [2] relates to renal carcinoma GRC-1 cell lines. Set-up: method as in PMID 18816120. As to conditions: cited from earlier work.
For data set [3], the system named is human hepatocellular carcinoma HepG-2 cell lines. Set-up: method as in PMID 18816120. As to conditions: cited from earlier work.

For orientation: IC50 means the midpoint of a concentration-inhibition curve. In the case of `CC(C)C[C@@H]1NC(=O)[C@@H](CC(C)C)N(C)C(=O)[C@H](CC(C)C)NC(=O)[C@@H](CC(C)C)N(C)C(=O)[C@H](CC(C)C)NC(=O)CN2C(=O)c3ccccc3[C@]2(O)CN(Cc2ccccc2)C1=O` [Compound 3, 3-Hydroxy-isoindolinone-cyclo-Gly-Leu-N-Me-Leu-Leu-N-Me-Leu-Leu] (cyclo([dNMeL]L[dNMeL]L[X2]L)), the concentration for half-maximal inhibition (IC50) in the data set on HepG-2 cells (48 h) was 90.9 ± 7.69 µM; with L929 cells (48 h), more than 400 µM; in the data set on MDA-MB-231 cells, 73.2 ± 2.8 µM.

As for `CC(C)C[C@@H]1C(=O)N[C@H](CC(C)C)C(=O)N[C@H](CC(C)C)C(=O)N[C@H](CC(C)C)C(=O)N(Cc2ccccc2)C[C@]2(O)c3ccccc3C(=O)N2CC(=O)N[C@H](CC(C)C)C(=O)N1C` [Compound 5, 3-Hydroxy-isoindolinone-cyclo-Gly-Leu-Leu-Leu-N-Me-Leu-Leu] (cyclo([dL][dL][X1][dL][dNMeL][dL])), the concentration for half-maximal inhibition (IC50) was found to be 28.2 ± 6.2 µM in the data set with HepG-2 cells (48 h), 153 ± 10.7 µM in the data set with L929 cells (48 h) and 60.8 ± 8.2 µM with MDA-MB-231 cells.

Regarding “3-Hydroxy-isoindolinone-cyclo-Gly-Leu-N-Me-Leu-Leu-Leu-Leu”, the ring closure, isolated yield in data set [1] is 25% and 23%.

On to “3-Hydroxy-isoindolinone-cyclo-Gly-Leu-Leu-Leu-N-Me-Leu-Leu”, for which, in data set [1], the ring closure, isolated yield was 24% and 28%.

For “3-Hydroxy-isoindolinone-cyclo-Gly-Leu-N-Me-Leu-Leu-N-Me-Leu-Leu”, the ring closure, isolated yield in data set [1] is 48% and 43% and 45%.

For `CC(C)C[C@@H]1C(=O)N[C@H](CC(C)C)C(=O)N[C@H](CC(C)C)C(=O)N[C@H](CC(C)C)C(=O)N(Cc2ccccc2)C[C@]2(O)c3ccccc3C(=O)N2CC(=O)N[C@H](CC(C)C)C(=O)N1C` [Compound 6, 3-Hydroxy-isoindolinone-cyclo-Gly-Leu-N-Me-Leu-Leu-Leu-Leu] (cyclo([dL][dL][X1][dL][dNMeL][dL])), the half-maximal inhibitory concentration (IC50) in the data set with HepG-2 cells (48 h) was determined as 36.1 ± 2.2 µM; with L929 cells (48 h), 120 ± 5.3 µM; with MDA-MB-231 cells it was 67.6 ± 2.3 µM.

As for “cyclo-(L-Leu-L-N-Me-Leu-L-Leu-L-Leu-L-N-Me-Leu-L-Leu) [galaxamide]”, the “in vitro antitumor activity” value in data set [2] and in data set [3] was “strong” in each case.

As to `CC(C)C[C@@H]1NC(=O)[C@H](CC(C)C)NC(=O)[C@H](CC(C)C)N(C)C(=O)[C@H](CC(C)C)NC(=O)CN2C(=O)c3ccccc3[C@@]2(O)CN(Cc2ccccc2)C(=O)[C@H](CC(C)C)NC1=O` [Compound 7, 3-Hydroxy-isoindolinone-cyclo-Gly-Leu-Leu-Leu-N-Me-Leu-Leu] (cyclo(LL[X1]L[NMeL]L)), the concentration for half-maximal inhibition (IC50) was 30.4 ± 1.6 µM in the data set on HepG-2 cells (48 h), more than 400 µM in the data set on L929 cells (48 h) and 112 ± 9 µM with MDA-MB-231 cells.

For the molecule `CC(C)C[C@H]1NC(=O)[C@H](CC(C)C)N(C)C(=O)[C@@H](CC(C)C)NC(=O)[C@H](CC(C)C)N(C)C(=O)[C@@H](CC(C)C)NC(=O)CN2C(=O)c3ccccc3[C@]2(O)CN(Cc2ccccc2)C1=O` [Compound 2, 3-Hydroxy-isoindolinone-cyclo-Gly-Leu-N-Me-Leu-Leu-N-Me-Leu-Leu] (cyclo([NMeL][dL][NMeL][dL][X2][dL])), the concentration for half-maximal inhibition (IC50) in the data set on HepG-2 cells (48 h) worked out at 72.1 ± 5.8 µM; with L929 cells (48 h) it was 364 ± 15.6 µM; in the data set with MDA-MB-231 cells it was 67.6 ± 3.3 µM.

For the molecule “3-Hydroxy-isoindolinone-cyclo-(Gly-Leu-N-Me-Leu-Leu-N-Me-Leu-Leu)”, the ring closure, isolated yield in data set [1] was 51%.

Take `CC(C)C[C@@H]1NC(=O)[C@H](CC(C)C)N(C)C(=O)[C@H](CC(C)C)NC(=O)[C@H](CC(C)C)N(C)C(=O)[C@H](CC(C)C)NC(=O)CN2C(=O)c3ccccc3[C@@]2(O)CN(Cc2ccccc2)C1=O` [Compound 4, 3-Hydroxy-isoindolinone-cyclo-Gly-Leu-N-Me-Leu-Leu-N-Me-Leu-Leu] (cyclo([NMeL]L[NMeL]L[X1]L)): the half-maximal inhibitory concentration (IC50) in the data set on HepG-2 cells (48 h) amounted to 81 ± 4.29 µM; with L929 cells (48 h), 310 ± 20.1 µM; in the data set on MDA-MB-231 cells, 95.3 ± 8.6 µM.

`CC(C)C[C@@H]1C(=O)N[C@H](CC(C)C)C(=O)N(C)[C@H](CC(C)C)C(=O)N[C@H](CC(C)C)C(=O)N(Cc2ccccc2)C[C@@]2(O)c3ccccc3C(=O)N2CC(=O)N[C@H](CC(C)C)C(=O)N1C` [Compound 1, 3-Hydroxy-isoindolinone-cyclo-(Gly-Leu-N-Me-Leu-Leu-N-Me-Leu-Leu)] (cyclo([dNMeL][dL][dNMeL][dL][X2][dL])): the IC50 in the data set with HepG-2 cells (48 h) was 38.4 ± 2.2 µM; in the data set with L929 cells (48 h), more than 400 µM; in the data set with MDA-MB-231 cells it was 59.3 ± 2.3 µM.

For the molecule `CC(=O)O[C@H]1C(=O)[C@@]2(C)[C@H]([C@H](OC(=O)c3ccccc3)[C@]3(O)C[C@H](OC(=O)[C@H](O)[C@@H](NC(=O)c4ccccc4)c4ccccc4)C(C)=C1C3(C)C)[C@]1(OC(C)=O)CO[C@@H]1C[C@@H]2O` [Taxol, paclitaxel, reference compound], the IC50 with HepG-2 cells (Homo sapiens, HepG2, 48 h, read-out: IC50 HepG-2) was 40.9 ± 5.2 µM; in the data set with L929 cells (Mus musculus, L929, 48 h, read-out: IC50 L929), 141 ± 9.3 µM.
